Columns and labels:
DLD-1 = test: In vitro APC inhibition assay (MTT), DLD-1; format: cell-based; conditions: Homo sapiens
Description: (§1) The small molecule anti-cancer compounds were evaluated for the ability to inhibit the activity of APC in an in vitro assay.
(§2) Reagents required for the assay are: (3-[4,5-Dimethylthiazol-2-yl]-2,5-diphenyltetrazolium bromide; Thiazolyl blue; RPI corp., cat# M92050); RPMI-1640 or Medium of Choice (i.e. DMEM) without phenol red; 1M Hepes; 100 mM NaPyruvate; 1000× Gentamicin (50 mg/ml); 100× Penicillin/Streptomycin/Fungizone; 1×PBS; Triton X-100; 1N HCl and Isopropanol. To make the MTT solution (10×), MTT powder was dissolved into complete RPMI (or DMEM solution) to a final concentration of 5 mg/mL and was sterilized by filtration with a 0.2 μm filter. The MTT solubilization solution contained 10% Triton X-100, 0.1N and 80% isopropanol. MTT solution was diluted to 1× with complete medium at 12 mL per plate. The culture dishes (96 wells) were removed from the incubator and the media was discarded. […] The cells were removed from the incubator and the MTT solution was discarded.
(§3) Percent inhibition was determined relative to control reactions without inhibitor, and half maximal inhibitory concentration (IC50) values were determined using a standard four parameter fit to the inhibition data.

HCT-116 = test: In vitro APC inhibition assay (MTT), HCT-116; format: cell-based; conditions: Homo sapiens, HCT-116, read-out: IC50 (nM) in HCT-116
Description: as §1
Reagents required for the assay are: (3-[4,5-Dimethylthiazol-2-yl]-2,5-diphenyltetrazolium bromide; Thiazolyl blue; RPI corp., cat# M92050); RPMI-1640 or Medium of Choice (i.e. DMEM) without phenol red; 1M Hepes; 100 mM NaPyruvate; 1000× Gentamicin (50 mg/ml); 100× Penicillin/Streptomycin/Fungizone; 1×PBS; Triton X-100; 1N HCl and Isopropanol. To make the MTT solution (10×), MTT powder was dissolved into complete RPMI (or DMEM solution) to a final concentration of 5 mg/mL and was sterilized by filtration with a 0.2 μm filter. The MTT solubilization solution contained 10% Triton X-100, 0.1N and 80% isopropanol. MTT solution was diluted to 1× with complete medium at 12 mL per plate. The culture dishes (96 wells) were removed from the incubator and the media was discarded. The plates were washed three times with 1×PBS. 100 μl of 1×MTT solution was added to each well and the plates were incubated in a tissue culture incubator for 2-4 hours, depending on the cell line. The cells were removed from the incubator and the MTT solution was discarded. 200 μl of 1×MTT solubilization solution was added to each well using a multi-channel pipetor and the cells were placed on an orbital shaker for 10 minutes. The results were read on a microtiter plate reader (absorbance=570 nm, reference=700 nm) and data was exported.
as §3

HT-29 = test: In vitro APC inhibition assay (MTT), HT-29; format: cell-based; conditions: Homo sapiens
Description: as §1, §2, §3

S9 half-life = format: in vitro ADME; conditions: S9 fraction; read-out: S9 T1/2
DLD1 cells = test: Dose response studies in CRC line DLD1 (truncated APC); format: cell-based, human; conditions: varying doses
Description: These 14 compounds then were obtained commercially and their IC50 determined by performing dose response studies with half log dilution series at 12 concentration points in two authentic CRC lines: HCT116 (wt APC) and DLD1 (truncated APC).
DLD-1 cells normally are cultured in 10% serum medium, and they are rapidly shifted to 0.2% serum medium for dose response studies.

IC50 (DLD-1; DLD-1, DLD-1 (truncated APC))	IC50 (HCT-116)	Structure (SMILES)	also measured
5300 nM	–	C#CCC1CCN(C2CCN(S(=O)(=O)c3ccccc3N=[N+]=[N-])CC2)CC1	–
–	> 10000 nM	CC1CCN(C2CCN(S(=O)(=O)c3ccc(Br)cc3OC(F)(F)F)CC2)CC1	–
–	> 10000 nM	Cc1cc(C)c(S(=O)(=O)N2CCC(N3CC(C)CC(C)C3)CC2)c(C)c1 (stereo not drawn)	IC50 (HT-29; HT-29, HT-29 (truncated APC)): 15 nM
–	> 10000 nM	Cc1cc(C)c(S(=O)(=O)N2CCC(N3CCC(CCC#N)CC3)CC2)c(C)c1	–
504 nM	> 10000 nM	C#CCOc1ccc(C(=O)c2ccccc2)cc1S(=O)(=O)N1CCC(N2CCC(C)CC2)CC1	IC50 (HT-29; HT-29, HT-29 (truncated APC)): 185 nM
10 nM	–	CC1CCN(C2CCN(S(=O)(=O)c3cccc4c3OCCO4)CC2)CC1	half-life (S9 half-life): 22.6 min
205 nM	–	CC1CCN(C2CCN(S(=O)(=O)c3ccc(OC(F)(F)F)c(C#CCCCCO)c3)CC2)CC1	–
–	> 10000 nM	CC1CCN(C2CCN(S(=O)(=O)c3ccc(C#N)cc3)CC2)CC1	–
921 nM	> 10000 nM	C#CCOc1ccc(CN2CCC(N3CCC(C)CC3)CC2)cc1N=[N+]=[N-]	IC50 (HT-29; HT-29, HT-29 (truncated APC)): 437 nM
–	> 10000 nM	CC1CCN(C2CCN(S(=O)(=O)c3cccc(Br)c3)CC2)CC1	–
–	> 10000 nM	CC1CCN(C2CCN(S(=O)(=O)c3ccc(Br)cc3)CC2)CC1	IC50 (HT-29; HT-29, HT-29 (truncated APC)): 1.2 nM
> 10000 nM	–	COc1ccc(S(=O)(=O)N2CCC([N+]3(C)CCCC3)CC2)cc1	–
–	> 10000 nM	CC1CCN(C2CCN(S(=O)(=O)c3ccc(-c4ccccc4F)cc3)CC2)CC1	–
–	> 10000 nM	Cc1cc(C)c(S(=O)(=O)N2CCC(N3CCCCC3)CC2)c(C)c1	–
–	> 10000 nM	CC1CCN(C2CCN(S(=O)(=O)c3ccccc3Br)CC2)CC1	–
0.7 nM	–	CC1CCN(C2CCN(S(=O)(=O)c3c(C(C)C)cc(C(C)C)cc3C(C)C)CC2)CC1	half-life (S9 half-life): 59 min
41 nM	–	COc1ccc(S(=O)(=O)N2CCC(N3CCC(C)CC3)CC2)c(OC)c1	–

IC50 (DLD-1; DLD-1, DLD-1 (truncated APC))	IC50 (HCT-116)	Structure (SMILES)	also measured
~7960 nM	–	C[C@H]1CC[N@@+](C)(C2CCN(S(=O)(=O)c3ccccc3)CC2)CC1	–
–	> 10000 nM	Cc1cc(C)c(S(=O)(=O)N2CCC(N3CCC(Cc4ccccc4)CC3)CC2)c(C)c1	–
172 nM	–	Cc1cc(C)c(S(=O)(=O)N2CCC(N3CCCC3)CC2)c(C)c1	–
374 nM	–	CC(C)c1cc(C(C)C)c(S(=O)(=O)N2CCC(N3CCCC3)CC2)c(C(C)C)c1	–
–	> 10000 nM	Cc1nc(Cl)sc1S(=O)(=O)N1CCC(N2CCC(C)CC2)CC1	–
–	> 10000 nM	C#CCOCCC1CCCCN1C1CCN(S(=O)(=O)c2ccccc2)CC1 (stereo not drawn)	IC50 (HT-29; HT-29, HT-29 (truncated APC)): 2300 nM
255 nM	–	CC1CCCN(C2CCN(S(=O)(=O)c3ccc(F)cc3)CC2)C1 (stereo not drawn)	–
2300 nM	–	C[N+]1(C2CCN(S(=O)(=O)c3cccc4ccccc34)CC2)CCCC1	–
–	–	CC(C(O)c1ccc(O)cc1)N1CCC(Cc2ccccc2)CC1 (stereo not drawn) [Ifenprodil]	sensitivity of DLD-1 vs HCT-116 cells to EBP inhibitors (FIG. 10) (DLD1 cells): selectively sensitive
–	> 10000 nM	CC1CCN(C2CCN(S(=O)(=O)c3cccc(-c4ccccc4)c3)CC2)CC1	–
–	> 10000 nM	Cc1cc(C)c(S(=O)(=O)N2CCC(N3CCOCC3)CC2)c(C)c1	–
38 nM	> 10000 nM	CC1CCN(C2CCN(S(=O)(=O)c3ccc4ncsc4c3)CC2)CC1	IC50 (HT-29; HT-29, HT-29 (truncated APC)): 26 nM
69 nM	–	Cc1cc(C)c(S(=O)(=O)N2CCC([N+]3(C)CCCC3)CC2)c(C)c1	–
–	> 10000 nM	CC1CCN(C2CCN(S(=O)(=O)c3ccccc3-c3ccc(C(F)(F)F)cc3)CC2)CC1	IC50 (HT-29; HT-29, HT-29 (truncated APC)): 57 nM
15000 nM	> 10000 nM	C#CCOc1ccc(N=[N+]=[N-])cc1S(=O)(=O)N1CCC(N2CCC(C)CC2)CC1	IC50 (HT-29; HT-29, HT-29 (truncated APC)): 4500 nM
463 nM	–	CC1CCN(C2CCN(S(=O)(=O)c3cccc(C(C)(C)C)c3)CC2)CC1	–

Structure (SMILES)	IC50 (DLD-1; DLD-1, DLD-1 (truncated APC))	IC50 (HCT-116)	also measured
C[Si](C)(C)C#CCC1CCN(C2CCN(S(=O)(=O)c3ccc(Br)cc3)CC2)CC1	–	> 10000 nM	IC50 (DLD-1; DLD-1 (truncated APC)): 2.9 nM; IC50 (HT-29; HT-29 (truncated APC)): 1.7 nM
COc1ccc(S(=O)(=O)N2CCC(N3CCC(C)CC3)CC2)cc1 [drawing 83]	–	> 10000 nM	–
